Measured values as given in ChEMBL document CHEMBL1126335, “Aryl cyanoguanidine potassium channel openers” (Bioorg Med Chem Lett, 1992).
Where “and” joins values, the source holds several entries; their conditions need not be identical. Equal values may be shown once.

How the values were obtained:
Assay type in all cases: functional
[1] = species: Rattus norvegicus; experiment: Vasorelaxant potency required to relax methoxamine contracted male Wistar Kyoto rat thoracic aorta
[2] = test system: Rattus norvegicus; experiment: Antihypertensive activity expressed as percent maximum decrease in blood pressure at 45 umol/Kg for 0-6 hrs in spontaneously hypertensive male rats when administered perorally
[3] = test system: Rattus norvegicus; experiment: Antihypertensive activity expressed as percent maximum decrease in blood pressure at 45 umol/kg for 6-12 hrs in spontaneously hypertensive male rats when administered perorally
[4] = test system: Rattus norvegicus; experiment: Antihypertensive activity expressed as percent maximum decrease in blood pressure at 45 umol/kg for 12-18 hrs in spontaneously hypertensive male rats when administered perorally
[5] = test system: Rattus norvegicus; experiment: Antihypertensive activity expressed as percent maximum decrease in blood pressure at 45 umol/kg for 18-24 hrs in spontaneously hypertensive male rats when administered perorally

IC50 [1] [nM]	SMILES	Max decrease [2] [%]	Max decrease [3] [%]	Max decrease [4]	Max decrease [5] [%]
170	CC(/N=C(\NC#N)Nc1cccc([N+](=O)[O-])c1)C(C)(C)C (centres undefined)				
430	CC(C)(C)/N=C(\NC#N)Nc1ccc(C#N)cc1				
19000	CC(C)/N=C(\NC#N)Nc1ccc(C#N)cc1				
120	CCC(C)(C)/N=C(\NC#N)Nc1ccc(C#N)cc1				
420	CC(/N=C(\NC#N)Nc1cccc(C#N)c1)C(C)(C)C (centres undefined)				
70	CC(N/C(=N\C#N)Nc1ccncc1)C(C)(C)C (centres undefined) [PINACIDIL ANHYDROUS]	40		21% and 23%	14

Second part, the molecule before the results:

SMILES	IC50 [1] [nM]	Max decrease [2] [%]	Max decrease [3] [%]	Max decrease [4]	Max decrease [5] [%]
CCC(C)(C)/N=C(\NC#N)NCc1ccc(C#N)cc1	1500				
CC(/N=C(\NC#N)Nc1ccc(C#N)cc1)C(C)(C)C (centres undefined)	22	33	26	26%	25
CC(/N=C(\NC#N)Nc1ccccc1[N+](=O)[O-])C(C)(C)C (centres undefined)	240				
CC(/N=C(\NC#N)Nc1ccc([N+](=O)[O-])cc1)C(C)(C)C (centres undefined)	5150				
C/N=C(\NC#N)Nc1ccc(C#N)cc1	123000				
CC(/N=C(\NC#N)Nc1ccccc1)C(C)(C)C (centres undefined)	880				
CC1(C)Oc2ccc(C#N)cc2[C@@H](N2CCCC2=O)[C@@H]1O [CROMAKALIM]	55	63	35	37%	42
